One test relates to T and B lymphocytes. The test is described as follows: Mitogen response of PBMC enriched for T or B lymphocytes continuously cultured with drug. It counts as cell-based, human. As to conditions: cultures continuously exposed to drug. The protocol: In FIG. 2, peripheral blood mononuclear cells enriched for either T (top) or B (bottom) lymphocytes were continuously cultured with the appropriate concentrations of drug for 3 or 6 days, respectively. The mitogen PHA-P was used at 5 μg/ml and the mitogen PWM was used at 1 μg/ml. The wells were pulsed and harvested as described above.
The adenosine analog 2-chlorodeoxyadenosine (2CDA) has also been reported to have significant cytotoxic and immunosuppressive effects on normal lymphocytes (10,13).

The subject of a further test is IgG production. Briefly: Cumulative IgG production in SAC + rIL-2 cultures, EIA. It counts as cell-based, human. Particulars: for accumulation of IgG: 5 and 10 day SAC rIL-2 cultures, preliminary studies; for effect on IgG production: FIG. 7B. The source says: In FIG. 7, peripheral blood mononuclear cells (PBMC) enriched for B lymphocytes (BC92; 35% CD19, 33% CD20, 35% CD3) were continuously cultured for 5 days in either medium alone, Staphylococcus aureus Cowan I (SAC) plus interleukin 2 (IL-2) (50 U/ml), or SAC plus IL-2 in the presence of various concentrations of FLP or 2-chlorodeoxyadenosine (2CDA). After 5 days of culture, the supernatants were harvested and serial dilutions of supernatant assayed for huIgM and huIgG by EIA. The presence of IgM rheumatoid factor (IgM-RF) was determined by EIA using the Vectastain Biotin-Streptavidin amplification system. Results are reported as O.D. 405 nm units. Nonspecific binding of neat supernatant to uncoated wells was <0.05% of that seen with the respective coated wells. The results shown are from 1 representative experiment of 4 separate experiments conducted with 4 different sources of packed leukocytes.
In FIG. 8, peripheral blood mononuclear cells (PBMC) enriched for B lymphocytes (BC92, 35% CD19, 33% CD20, 35% CD3) were continuously cultured for 10 days in either medium alone, Staphylococcus aureus Cowan I (SAC) plus interleukin 2 (IL-2) (50 U/ml), or SAC plus IL-2 in the presence of various concentrations of FLP or 2CDA. At the end of the culture period, the supernatants were harvested and serial dilutions assayed for huIgM, huIgG, and IgM-RF by EIA. The cells were phenotyped by flowcytometry. Results are reported as O.D. 405 nm units. Nonspecific binding of neat supernatants to uncoated wells was <0.5% of that seen with parallel coated wells. The results shown are from 1 experiment representative of 3 separate experiments conducted with 3 different sources of packed leukocytes.
In FIG. 9, peripheral blood mononuclear cells (PBMC) (BC93; 22% CD19, 20% CD20, 78% CD3) were continuously cultured for 5 days in either medium alone, Staphylococcus aureus Cowan I (SAC) plus interleukin 2 (IL-2) (50 U/ml) or 20% T cell conditioned medium (Tcm) in the presence of various concentrations of FLP. At the end of the 5 day culture period, the supernatants were harvested and serial dilutions assayed for huIgM, huIgG, and IgM-RF by EIA. The results are reported as O.D. 405 nm units. Nonspecific binding of neat supernatants to uncoated wells was <0.05% of parallel coated wells. The results shown are from one representative experiment.
Immulon-2 (Dynatek Laboratories, #011-010-3450, Chantilly, Va.) flat-bottom 96 well microtiter plates were coated with 100 μl/well of a 2 μg/ml solution of goat F(ab′)2 anti-HuIgM (μ chain, CALTAG #H15100, So. San Francisco, Calif.) or goat F(ab′)2 anti-HuIgG (Fc sp., CALTAG #H10100) in 0.1 M sodium carbonate buffer, pH 9.6 overnight at 4° C. Uncoated wells were incubated with the carbonate buffer alone. The plates were rinsed and then incubated with 100 μl/well of 0.1% BSA/PBS for 1 hr at RT. The plates were rinsed twice with PBS and then incubated for 2 hrs at RT with the respective serial dilutions of culture supernatant and human IgM or IgG standards (Sigma, St.
Louis, Mo.). All dilutions were made in complete S-10 medium (see above). At the end of the incubation period, the plates were rinsed 3 times with PBS/0.05% Tween-20. 100 μl of a 1/500 dilution of goat F(ab′)2 anti-IgM (m) or anti-IgG (H+L) conjugated with alkaline phosphatase (Fisher Biotech, #OB1210-ALPH and #OB1220-ALPH, Pittsburg, Pa.) was added to each well and incubated for 1 hr at RT. The plates were rinsed 3-5 times with PBS/0.05% Tween-20 and 100 μl/well of p-nitrophenyl phosphate substrate (Bio-Rad, Richmond, Calif.) was added and incubated for 30 min. The wells were read at 405 nm with an InterMed NJ-2000 immunoreader. The concentration of sample IgM or IgG was calculated off of a standard curve using the XFROMY linear regression analysis on RS-1 (VAX-VMS). Nonspecific binding was determined from low-dilution samples incubated in parallel in uncoated wells (<0.005% O.D. 405 nm of coated wells). […]

Molecules are shown by their SMILES.

Take `Nc1nc(Cl)nc2c1ncn2[C@H]1C[C@H](O)[C@@H](CO)O1` [2CDA, 2-chlorodeoxyadenosine]: the “level of drug that suppresses the mitogen response” value in the test on T and B lymphocytes was 0.5 µg/mL. Moreover, the “accumulation of IgG” value in the test on IgG production is “dose-related decrease”. In the test with IgG production (one microgram per ml, 5 days), the “effect on IgG production” value is listed as “block”. The “effect on IgG accumulation” value in the test on IgG production (one microgram per ml, 10 days) was “block the accumulation”.
Turning to `Nc1nc(F)nc2c1ncn2[C@@H]1O[C@H](COP(=O)(O)O)[C@@H](O)[C@@H]1O` [FLP, fludarabine-5′-monophosphate], the “level of drug that suppresses the mitogen response” value in the test with T and B lymphocytes amounted to 0.5 µg/mL. The “effect on IgG accumulation” value in the test with IgG production (0.1 μg/ml, 10 days, FIG. 8B) is “minimal effect”. The “reduction of IgG accumulation” value with IgG production (1 μg, 10 days, FIG. 8B) is given as 80%; in the test on IgG production (5 μg, 10 days, FIG. 8B), 98%; in the test with IgG production (0.1 and 0.5 μg/ml, PBMC, 5 days, cultures supplemented with T cell conditioned medium, FIG. 9B) it was “not seen”. Further, the “accumulation of IgG” value with IgG production is “dose-related decrease”. In the test with IgG production (one hundred nanograms per ml, 5 days), the “effect on IgG production” value is on record as “minimal effect”.

The values above are taken from US6337333B1, “Method of treating autoimmune disease with fludarabine-5′-monophosphate” (priority 1992, dated 2002).
